Reference: US12215111B2, “Imidazopyridazine IL-17 inhibitor compounds” (Janssen Pharmaceutica NV, priority 2021, dated 2025)
pIC50: −log10 of the molar value.

Key:
[1] = target: T1, IL-17A(FLAG-Tagged): IL-17RA(His-Tagged) (Homo sapiens, UniProt Q16552, K93Q); experiment: IL-17A(FLAG-tagged):IL-17RA(His-tagged) binding disruption Eu-HTRF assay, Protocol 1; details: FLAG tagged IL-17A at 2× final concentration (2.5 nM); simple average if tested more than once
Excerpt: (§1) IL-17A(FLAG-Tagged): IL-17RA(His-Tagged) Binding Disruption Eu-HTRF Assay
(§2) An antibody directed against the FLAG tag of IL-17A (SEQ ID NO:1) is labeled with the HTRF donor chromophore (Europium-cryptate). IL-17A is present as a dimer that is “locked into” this quaternary structure due to the formation of loop-spanning […] disulfide bridges. The construct of IL-17RA used in the assay excludes the outer-membrane portion of the receptor and is fused to a C-terminal 10×His tag (SEQ ID NO:2). An antibody directed against the His tag of the IL-17RA chimera is labeled with the HTRF acceptor chromophore (“D2”). The fluorescence-resonance energy transfer (FRET) depends on the vicinity of the donor chromophore to the acceptor, and interruption of the binding between the IL-17A and IL-17RA causes the reduction/loss of FRET. Therefore, this assay allows to evaluate the compound effect on the binding IL-17A and IL-17RA by monitoring the fluorescence intensity of donor vs acceptor. The assay was run using either Protocol 1 or Protocol 2 described below.
(§3) Protocol 1: 40 nL of 2-fold serial diluted compound solution for total 22 dilution points is added into each well of a 1536-well, white, low-volume, non-binding plate (Greiner #782904), then 2 μl of FLAG tagged IL-17A at 2× final concentration (2.5 nM) in solution of PBS+0.01% Triton-X100 is added to each well. The assay plate is briefly centrifuged then incubated for 1 h at rt. A mixed solution is prepared containing 2×5 nM 10HIS×IL-17RA, 2×2.5 nM Eu-anti-FLAG (CISBIO), 2×5 nM D2-anti-HIS (CISBIO) in PBS+0.01% Triton-X100+200 mM Potassium Fluoride (Sigma 60238) and […] of mix is added to each well of the assay plate. The plate is briefly centrifuged then incubated for 2 h at rt. The HTRF intensities at the wavelength of donor (620 nm) and acceptor (665 nm) are measured using BMG Pherastar. The ratio between intensities at two wavelengths is calculated and plotted against the compound concentration and the data is fitted to a one-site competition model to yield IC50 of the compound.

[2] = target: T1, IL-17A(FLAG-Tagged): IL-17RA(His-Tagged); experiment: IL-17A(FLAG-tagged):IL-17RA(His-tagged) binding disruption Eu-HTRF assay, Protocol 2; details: FLAG tagged IL-17A at 2× final concentration (1 nM); simple average if tested more than once
Excerpt: as §1, §2
as §3, with “2.” for “1:”, “nl” for “nL”, “(1” for “(2.5”, “(615” for “(620”

[3] = test system: IL-17A-induced G-CSF production in human normal keratinocyte (NHK); experiment: NHK assay: IL-17A-induced G-CSF production in normal human keratinocytes; assay type: cell-based; details: Homo sapiens, Keratinocyte; IL-17A 5 ng/mL, 24 h at 37° C., G-CSF by HTRF; simple average if tested more than once
Outline: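 Compound titrations are first mixed with recombinant human IL-17A for 1 h at room temperature. The mixture goes onto adult normal human keratinocytes (final IL-17A 5 ng/mL, 5% FBS, 0.2% DMSO) for 24 h at 37 °C. Secreted G-CSF is then measured by HTRF and IC50 fitted.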

[4] = moderate-to-severe HS, seven of nine patients, open-label pilot-trial; cited from earlier work

T1 sequence (Q16552 with tags, fused parts or gaps K93Q): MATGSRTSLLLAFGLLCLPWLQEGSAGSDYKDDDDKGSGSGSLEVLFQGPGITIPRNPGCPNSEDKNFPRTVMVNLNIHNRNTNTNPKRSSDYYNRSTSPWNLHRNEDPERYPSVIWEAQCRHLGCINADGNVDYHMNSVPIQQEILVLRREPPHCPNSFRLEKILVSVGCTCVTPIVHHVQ

Compound | IC50 [1] [µM] | IC50 [2] [µM] | pIC50 [3] | patients who achieved HiSCR [4] [%]
secukinumab |  |  |  | 78
COC[C@H](c1cnn2cc([C@H](CCC(C)(C)C(F)(F)F)NC(=O)c3nonc3C)nc2c1)N1C[C@@](C)(C(F)(F)F)NC1=O (single isomer, unassigned) [Example 31] |  | < 4 | > 5.40 | 
COC[C@H](c1cnn2cc([C@@H](NC(=O)c3nonc3C)C3CCC(F)(F)CC3)nc2c1)N1C[C@@H](C(F)F)NC1=O [Example 26, N—((S)—(4,4-Difluorocyclohexyl)(7-((S)-1-((S)-4-(difluoromethyl)-2-oxoimidazolidin-1-yl)-2-methoxyethyl)imidazo[1,2-b]pyridazin-2-yl)methyl)-4-methyl-1,2,5-oxadiazole-3-carboxamide] |  | < 4 | > 5.40 | 

Further lines, with some results ahead:

IC50 [1] [µM] | IC50 [2] [µM] | Compound | pIC50 [3] | patients who achieved HiSCR [4] [%]
< 4 | < 4 | O=C(N[C@H](c1cn2ncc(CN3C(=O)N[C@@H]4CC(F)(F)C[C@@H]43)cc2n1)C1CCC(F)(F)CC1)c1nonc1C1CC1 (single isomer, unassigned) [Example 7, 4-Cyclopropyl-N—((S)-(7-(((3aR*,6aS*)-5,5-difluoro-2-oxohexahydrocyclopenta[d]imidazol-1(2H)-yl)methyl)imidazo[1,2-b]pyridazin-2-yl)(4,4-difluorocyclohexyl)methyl)-1,2,5-oxadiazole-3-carboxamide] | > 5.40 | 
 | < 4 | CC(C)n1nccc1C(=O)N[C@H](c1cn2ncc(CN3CC4(CC(F)(F)C4)NC3=O)cc2n1)C1CCC(F)(F)CC1 [Example 46, (S)—N-((7-((2,2-Difluoro-6-oxo-5,7-diazaspiro[3.4]octan-7-yl)methyl)imidazo[1,2-b]pyridazin-2-yl)(4,4-difluorocyclohexyl)methyl)-1-isopropyl-1H-pyrazole-5-carboxamide] | 5.00 to 5.40 | 
 | < 4 | COC[C@H](c1cnn2cc([C@@H](NC(=O)c3nonc3C)C3CCC(F)(F)CC3)nc2c1)N1C[C@@H](C2(C#N)CC2)NC1=O [Example 25, N—((S)-(7-((S)-1-((R)-4-(1-Cyanocyclopropyl)-2-oxoimidazolidin-1-yl)-2-methoxyethyl)imidazo[1,2-b]pyridazin-2-yl)(4,4-difluorocyclohexyl)methyl)-4-methyl-1,2,5-oxadiazole-3-carboxamide] | > 5.40 | 
